Results reported in patent US12116343B2, “Inhibitors of APOL1 and methods of using same” (Vertex Pharmaceuticals Incorporated, priority 2020, dated 2024).
Where two headings read alike, the source gives them in different places.

Target: T1, G1 APOL1 (Homo sapiens, UniProt O14791, I384M/S342G)
T1 construct: expressed in transfected cells
T1 sequence (O14791 28-398 S342G/I384M): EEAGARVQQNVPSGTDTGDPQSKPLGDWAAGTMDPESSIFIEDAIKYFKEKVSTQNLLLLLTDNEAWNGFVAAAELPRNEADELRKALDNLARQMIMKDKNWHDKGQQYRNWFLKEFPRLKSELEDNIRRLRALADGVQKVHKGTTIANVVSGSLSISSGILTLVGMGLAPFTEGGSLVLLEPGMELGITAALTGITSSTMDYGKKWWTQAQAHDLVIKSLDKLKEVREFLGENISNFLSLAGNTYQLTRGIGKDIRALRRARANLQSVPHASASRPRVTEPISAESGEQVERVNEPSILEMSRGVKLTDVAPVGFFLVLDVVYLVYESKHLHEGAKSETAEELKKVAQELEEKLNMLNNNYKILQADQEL
Test: Acute APOL1 Thallium Assay with inducible stable clones of HEK 293 cells
Type: cell-based
Conditions: read-out: Thallium Assay (IC50)
Description: Acute APOL1 Thallium Assay with Inducible Stable Clones of HEK 293 Cells
Apolipoprotein L1 (APOL1) proteins form potassium-permeable cation pores in the plasma membrane. APOL1 risk variants (G1 and G2) induce greater potassium flux than G0 in HEK293 cells. This assay exploits the permeability of thallium (Tl+) through ligand-gated potassium channels. The dye produces a bright fluorescent signal upon binding to Tl+ conducted through potassium channels. The intensity of the Tl+ signal is proportional to the number of potassium channels in the open state. Therefore, it provides a functional indication of the potassium channel activities. During the initial dye-loading step, the Tl+ indicator dye as an acetoxymethyl (AM) ester enters the cells through passive diffusion. Cytoplasm esterases cleave the AM ester and relieve its active thallium-sensitive form. The cells are then stimulated with Tl+. The increase of fluorescence in the assay represents the influx of Tl+ into the cell specifically through the potassium channel (i.e. through APOL1 pores), providing a functional measurement of potassium channel/pore activity. The Thallium assay is conducted with cells expressing G1 APOL1.
APOL1 Cell Line (HEK T-Rex Stable Inducible Cell Line) • HEK T-Rex System • Tetracycline (Tet) inducible mammalian expression system. • Stably express the Tet repressor to regulate transcription. • Expression under the full-length CMV promoter. • APOL1 stable inducible cell line Clone used: G1 DC3.25
Tissue Culture Media • Cell Culture Medium • DMEM+10% FBS+P/S+5 μg/mL blasticidin+1 μg/mL puromycin. • 500 mL DMEM+55 mL FBS+5 mL P/S+280 μL blasticidin S HCl (10 mg/mL)+56 μL puromycin (10 mg/mL). • Cell Assay Medium • DMEM with 2% FBS+pen strep.
Instruments and Equipment • Nuaire cell culture hood, Cat. No. 540-600 • 37° C./5% CO2 incubator link to robotic arm, Liconic: STX110 • Molecular Devices FLIPR^Tetra High throughput cellular screening system, Cat. No. FT0324, Molecular Devices • ThermoFisher MultiDrop 384, Cat. No. 5840300 • Biotek Microfill, Cat. No. ASF1000A-4145 • BioRad TC10 cell counter, Cat. No. 145-0010 Assay Procedures
Cells Scaled Up from Frozen Vials • APOL1 G1 3.25 (HEK293 T-Rex) frozen vials: 5 million cells per vial • Step 1, Day 1: Defrost frozen vial into T-225. • Step 2, Day 5: (when 85% confluent): Split one T-225 at 3×10^6 cells per flask. • Step 3, Day 8: Splits cells to set up for the assay plates as described below.
T-Rex APOL1 HEK cells are split twice per week to keep the confluence state below 85% of the culture flask surface area. Cells can be kept until passage 25. • Cell Culture Medium • DMEM high glucose+10% FBS, +P/S, +5 μg/mL blasticidin, +1 μg/mL puromycin. • 500 mL DMEM, +55 mL FBS, +5 mL P/S, +280 μL blasicidin 10 mg/mL, +56 μL Puromycin 10 mg/mL. • Assay Media • Opti-MEM reduced serum medium from Invitrogen.
Preparation of Cell Assay Plates • Culture medium is removed from the x cm^2 T-flask by aspiration. • The cell monolayer is rinsed with PBS 1× at room temperature. PBS is removed by aspiration. • Cells are trypsinized using Trypsin. • The flasks are incubated at room temperature for 2-3 minutes. • Complete DMEM medium is then added. Cell suspension is then transferred to a 50 mL Falcon polypropylene tube. • Cells are then counted using a Biorad TC10 cell counter and the required amount of cells are centrifuged at 1200 RPM for 5 minutes. Required amount is 1.3×10^6 cells/mL APOL1 T-Rex HEK cells. • The pellet is suspended in the assay medium. • Using the MultiDrop, add 20 μL to each well (corresponds to 26000 cells total per well) of a 384-well black, transparent, flat bottom Poly-D coated plate. • Tetracycline as prepared in the following section is added to the cells before plating to induce APOL1 expression. • Plates are left at room temperature for 20 to 30 minutes before incubation at 37° C. and 5% CO2. […]

[1] = HEK 293 T-Rex cells expressing G1 APOL1

Compound	IC50 (Table 24, Compounds 287 to 465) [µM]	IC50 [1] [µM]
O=C(Nc1c[nH][nH]c1=O)C1CC(Cc2c(-c3ccc(F)cc3)[nH]c3c(F)cc(F)cc23)C1 (stereo not shown) [Compound 310]	> 1	
CC(C)C[C@H](CO)NC(=O)C1CC(Cc2c(-c3ccc(F)cc3)[nH]c3c(F)cc(F)cc23)C1 (stereo partly shown) [Compound 302]	> 1	
Cn1nccc1NC(=O)[C@H]1C[C@@H](c2c(-c3ccc(F)cc3)[nH]c3c(F)cc(F)cc32)C1 [Compound 247]		> 1
O=C(NCC1CC(F)(F)C1)C1CC(Cc2c(-c3ccc(F)cc3)[nH]c3c(F)cc(F)cc23)C1 (stereo not shown) [Compound 328]	> 1	
CC1(C)CC(NC(=O)NC[C@H]2C[C@H](c3c(-c4ccc(F)cc4)[nH]c4c(F)cc(F)cc43)C2)C(=O)O1 (stereo partly shown) [Compound 403]	> 1	
CC(C)(O)CCNC(=O)C1CC(Cc2c(-c3ccc(F)cc3)[nH]c3c(F)cc(F)cc23)C1 (stereo not shown) [Compound 327]	> 1	
C[C@@H](CO)NC(=O)CC1CC(c2c(-c3ccc(F)cc3)[nH]c3c(F)cc(F)cc23)C1 (stereo partly shown) [Compound 458]	> 1	
O=C(N[C@H]1C[C@H](O)C1)[C@H]1C[C@@H](c2c(-c3ccc(F)cc3)[nH]c3c(F)cc(F)cc32)C1 [Compound 267]		> 1
C[C@H](CO)NC(=O)[C@H]1C[C@@H](c2c(-c3ccc(F)cc3)[nH]c3c(F)cc(F)cc32)C1 [Compound 272]		> 1
O=C(NCC(F)(F)F)[C@H]1C[C@@H](c2c(-c3ccc(F)cc3)[nH]c3c(F)cc(F)cc32)C1 [Compound 260]		0.25 to 1
O=C(NC(CO)(CO)CO)[C@H]1C[C@H](c2c(-c3ccc(F)cc3)[nH]c3c(F)cc(F)cc32)C1 [Compound 226]		< 0.25
O=C(NCc1cnn(CC(F)(F)F)c1)C1CC(Cc2c(-c3ccc(F)cc3)[nH]c3c(F)cc(F)cc23)C1 (stereo not shown) [Compound 331]	> 1	
O=C(NCc1ncc[nH]1)O[C@H]1C[C@H](c2c(-c3ccc(F)cc3)[nH]c3c(F)cc(F)cc32)C1 [Compound 373]	> 1	
C[C@H](CO)NC(=O)CC1CC(c2c(-c3ccc(F)cc3)[nH]c3c(F)cc(F)cc23)C1 (stereo partly shown) [Compound 454]	> 1	
O=C(CNC(=O)[C@H]1C[C@H](c2c(-c3ccc(F)cc3)[nH]c3c(F)cc(F)cc32)C1)NC[C@@H](O)C(F)(F)F [Compound 233]		> 1
N#CC(CO)NC(=O)C1CC(Cc2c(-c3ccc(F)cc3)[nH]c3c(F)cc(F)cc23)C1 (stereo not shown) [Compound 303]	> 1	
CC1(C(=O)NCCO)CC(c2c(-c3ccc(F)cc3)[nH]c3c(F)cc(F)cc23)C1 (mixture of isomers) [Compound 283]		0.25 to 1
CN1CCN(C(=O)CNCC2CC(c3c(-c4ccc(F)cc4)[nH]c4c(F)cc(F)cc34)C2)CC1 (stereo not shown) [Compound 444]	> 1	
O=C(CNC[C@H]1C[C@H](c2c(-c3ccc(F)cc3)[nH]c3c(F)cc(F)cc32)C1)NC1CC1 [Compound 449]	0.25 to 1	
C[C@@H](CO)NC(=O)[C@H]1C[C@H](c2c(-c3ccc(F)cc3)[nH]c3c(F)cc(F)cc32)C1 [Compound 27]		< 0.25

Compound	IC50 (Table 24, Compounds 287 to 465) [µM]	IC50 [1] [µM]
NC(=O)C(CO)NCC1CC(c2c(-c3ccc(F)cc3)[nH]c3c(F)cc(F)cc23)C1 (stereo not shown) [Compound 437]	0.25 to 1	
O=C(NC[C@H]1C[C@H](c2c(-c3ccc(F)cc3)[nH]c3c(F)cc(F)cc32)C1)NC1(CO)CCOC1 (stereo partly shown) [Compound 425]	> 1	
O=C(CNC(=O)[C@H]1C[C@H](c2c(-c3ccc(F)cc3)[nH]c3c(F)cc(F)cc32)C1)NC[C@H](O)C(F)(F)F [Compound 234]		> 1
Cn1cnc(CNC(=O)O[C@H]2C[C@H](c3c(-c4ccc(F)cc4)[nH]c4c(F)cc(F)cc43)C2)c1 [Compound 368]	> 1	
O=C(CC1CC(c2c(-c3ccc(F)cc3)[nH]c3c(F)cc(F)cc23)C1)N[C@@H](CO)C(F)(F)F (stereo partly shown) [Compound 462]	> 1	
CN(CC1CC(c2c(-c3ccc(F)cc3)[nH]c3c(F)cc(F)cc23)C1)C(=O)NCc1cn(C)cn1 (stereo not shown) [Compound 427, 1-((3-(5,7-difluoro-2-(4-fluorophenyl)-1H-indol-3-yl)cyclobutyl)methyl)-1-methyl-3-((1-methyl-1H-imidazol-4-yl)methyl)urea]	> 1	
O=C(N[C@@H]1CC[C@H](O)C1)[C@H]1C[C@H](c2c(-c3ccc(F)cc3)[nH]c3c(F)cc(F)cc32)C1 [Compound 180]		> 1
CC[C@H](CO)NC(=O)NC[C@H]1C[C@H](c2c(-c3ccc(F)cc3)[nH]c3c(F)cc(F)cc32)C1 [Compound 418]	> 1	
C[C@H](CO)NC(=O)O[C@H]1C[C@H](c2c(-c3ccc(F)cc3)[nH]c3c(F)cc(F)cc32)C1 [Compound 354]	0.25 to 1	
CC[C@@H](CO)NC(=O)NC[C@H]1C[C@H](c2c(-c3ccc(F)cc3)[nH]c3c(F)cc(F)cc32)C1 [Compound 421]	> 1	
O=C(NC[C@H]1C[C@H](c2c(-c3ccc(F)cc3)[nH]c3c(F)cc(F)cc32)C1)NC1(CO)CC(F)(F)C1 [Compound 400]	> 1	
O=C(N[C@H]1CCOC1)O[C@H]1C[C@H](c2c(-c3ccc(F)cc3)[nH]c3c(F)cc(F)cc32)C1 [Compound 381]	> 1	
O=C1CCC(NC(=O)[C@H]2C[C@@H](c3c(-c4ccc(F)cc4)[nH]c4c(F)cc(F)cc43)C2)C(=O)N1 (stereo partly shown) [Compound 252]		> 1
CCNC(=O)NC[C@H]1C[C@H](c2c(-c3ccc(F)cc3)[nH]c3c(F)cc(F)cc32)C1 [Compound 410]	> 1	
CC(CO)NC(=O)[C@H]1C[C@@H](c2c(-c3ccc(F)cc3)[nH]c3c(F)cc(F)cc32)C1 (mixture of isomers) [Compound 243]		> 1
O=C(NCc1ccc[nH]c1=O)C1CC(Cc2c(-c3ccc(F)cc3)[nH]c3c(F)cc(F)cc23)C1 (stereo not shown) [Compound 313]	> 1	
CC(C)NC(=O)CNC[C@H]1C[C@H](c2c(-c3ccc(F)cc3)[nH]c3c(F)cc(F)cc32)C1 [Compound 451]	> 1	
NC(=O)CNC(=O)C1CC(c2c(-c3ccc(F)cc3)[nH]c3c(F)cc(C(F)(F)F)cc23)C1 (stereo not shown) [Compound 280]		< 0.25
C[C@H](O)CNC(=O)N(C)CC1CC(c2c(-c3ccc(F)cc3)[nH]c3c(F)cc(F)cc23)C1 (stereo partly shown) [Compound 430]	> 1	
Cn1ccnc1CNC(=O)C1CC(Cc2c(-c3ccc(F)cc3)[nH]c3c(F)cc(F)cc23)C1 (stereo not shown) [Compound 338]	> 1	
